# Source: US20130156865A1, “POTENTIATION INDUCED BY PDE4 INHIBITORS IN THE TREATMENT OF LEUKEMIA” (Chiesi Farmaceutici S.p.A., priority 2011, published 2013)
# Entries after “also recorded” stand apart in the source; their conditions may differ.
# How the values were obtained:
# [1] = test system: NB4 and NB4-AsR Acute Promyelocytic Leukemia cell lines; test: Myeloid differentiation (CD11b expression, NBT reduction test) with ATRA or low-dose ATO; type: cell-based, human
# Description: NB4 and NB4-AsR were seeded at 0.8×10^5 cells/mL in presence of vehicle (DMSO) or the PDE-4 inhibitor at the indicated doses for 30 minutes and then incubated with 0.1 μM and 1 μM of all-trans retinoic acid ([…]) promoting cell differentiation (see Chen GQ et al., Blood. 1997; 89(9):3345-53, which is incorporated herein by reference in its entirety). After 72 hours of treatment, early and late stage of differentiation was evaluated. More specifically, expression of the cell surface CD11b, an early-expressed maturation marker, was measured by flow cytometry using fluorescein isothiocyanate (FITC)-conjugated anti-CD11b antibody (Sigma Chemical Co.) according to the manufacturer's protocol. Late stage differentiation of leukemic cells was detected using the microscopic nitroblue tetrazolium (NBT) reduction test (Chen GQ et al., vide supra).
# This assay is conducted by counting the cells containing blue NBT formazan deposits, which are formed by reduction of the membrane permeable, water-soluble, yellow-colored, nitroblue tetrazolium (NBT) by superoxide anions O2. Over 300 cells were counted per sample, and variation in replicates was routinely within 10%.
# [2] = test system: Imatinib-sensitive (K562-SENS, LAMA-SENS, KCL22-SENS) and Imatinib-resistant (K562-RES, LAMA-RES, KCL22-RES and BAF3 p210-T315I) chronic myeloid leukemia (CML) …; test: Apoptosis (sub-G1 propidium iodide or Annexin-V) with PDE-4 inhibitor plus ATO in CML cell lines; type: cell-based, human
# Description: (§1) The Parental Acute Promyelocytic Leukemia (APL) cell line NB4 and the Arsenic resistant NB4-AsR cell line were seeded at 0.8×10^5 cells/mL of fresh RPMI 1640 medium (Sigma Aldrich), supplemented with 10% fetal calf serum, 2 mM L-glutamine, penicillin G (100 U/mL), streptomycin ([…]). Cells were pre-treated for 30 minutes with vehicle (DMSO), CHF-6001 (1 and 10 μM), Roflumilast (1 and 10 μM) or Piclamilast (1, and 50 μM) and then incubated with ATO at the indicated doses. After 72 hours cells were collected, stained with Annexin-V FITC (according to the manufacturer's recommendations—Bender MedSystems) and processed by flow cytometry (FACSCalibur, Becton Dickinson, San Josè, Calif.) to evaluate the percentage of apoptosis as described in Lunghi P et al., Leukemia. 2005; 19(2):234-44, which is incorporated herein by reference in its entirety.
# The Imatinib-sensitive (K562-SENS, LAMA-SENS, KCL22-SENS) and Imatinib-resistant (K562-RES, LAMA-RES, KCL22-RES and BAF3 p210-T315I) chronic myeloid leukemia (CML) cell lines were cultured with the PDE-4 inhibitor and ATO as described in Example 1. After 72 hours cells were harvested, stained with Propidium Iodide to evaluate the percentage of cells with hypodiploid DNA content (sub-G1) or with Annexin-V FITC as described in Lunghi P et al Leukemia. 2005; 19(2):234-44, which is incorporated herein by reference in its entirety.
# [3] = test system: LAMA-RES, NB4 and NB4-AsR cell lines; test: C2/ATO-induced apoptosis (annexin V) in the presence of caspase inhibitors; type: cell-based, human; conditions: caspase inhibitors 25 μM, 1 hour pre-treatment; 24 hours; FIG. 4
# Description: On the Y-axis the histograms represent the percentage of apoptotic cells measured by Annexin V staining (% ANNEXIN V+). NEG indicates peptide control Cbz-Phe-Ala-fluoromethyl ketone (Z-FA-FMK), CASPASE-8 IN, specific caspase-8 inhibitor Cbz-Ile-Glu(Ome)-Thr-Asp(Ome)-fluoromethyl ketone (Z-IETD-FMK), CASPASE-9 IN, specific caspase-9 inhibitor Cbz-Leu-Glu(Ome)-His-Asp(Ome)-fluoromethyl ketone (Z-LEHD-FMK), PANCASPASE IN, pancaspase inhibitor Cbz-Val-Ala-Asp(Ome)-fluoromethyl ketone (Z-VAD-FMK); CTR, control; C2, compound C2; ATO, arsenic trioxide.
# LAMA-RES, NB4 and NB4-AsR cell lines were pretreated with selective caspase inhibitors for 1 hour before adding C2 and/or ATO. After 24 hours the percentage of apoptotic cells was determined by the annexin V method. More specifically, the caspase inhibitors are: NEG peptide control Cbz-Phe-Ala-fluoromethyl ketone (Z-FA-FMK), CASPASE-8 inhibitor Cbz-Ile-Glu(Ome)-Thr-Asp(Ome)-fluoromethyl ketone (Z-IETD-FMK), CASPASE-9 inhibitor Cbz-Leu-Glu(Ome)-His-Asp(Ome)-fluoromethyl ketone (Z-LEHD-FMK), and the PANCASPASE inhibitor Cbz-Val-Ala-Asp(Ome)-fluoromethyl ketone (Z-VAD-FMK), all provided from Alexis (San Diego, Calif., USA). All caspase inhibitors were dissolved in DMSO, stocked in aliquots at −20° C., and used at the final concentration of 25 μM.
# [4] = test system: Acute Promyelocytic Leukemia (APL) cell line NB4 and Arsenic resistant NB4-AsR cell line; test: Annexin-V apoptosis assay with PDE-4 inhibitor pre-treatment plus ATO in APL cells; type: cell-based, human
# Description: as §1
# [5] = test system: NB4 and NB4-AsR cell lines; test: Myeloid marker panel (CD33, CD38, CD11b, CD14, CD15) and NBT reduction with C2/ATRA; type: cell-based, human
# Description: On the Y-axis the histograms represent, for each cell line, the percentage of myeloid differentiation measured using a panel of myeloid markers (CD33, CD38, CD11b, CD15, CD14) and nitroblue tetrazolium reduction test (% NBT+). Vehicle indicates Dimethyl sulfoxide (DMSO); C2, compound C2; CTR, control; ATRA, all-trans retinoic acid.
# NB4 e NB4-AsR cell lines were cultured with C2/ATRA for 72 hours, after which cells were harvested for determination of NBT reduction and expression of differentiation-associated surface antigens CD33, CD38, CD11b, CD14 and CD15. Cytofluorimetric analysis of surface antigen expression was performed using the following monoclonal antibodies all provided by Sigma Chemical: fluorescein isothiocyanate (FITC)-conjugated anti-CD33 antibody, (FITC)-conjugated anti-CD38 antibody, (FITC)-conjugated anti-CD11b antibody, (FITC)-conjugated anti-CD 14 antibody and (FITC)-conjugated anti-CD15 antibody. Briefly, each antibody was incubated at the proper dilution with cell samples in PBS containing 1% BSA for 30 minutes at room temperature. Cells were then washed and resuspended with PBS and analyzed by flow cytometer.
# [6] = test system: chronic lymphocytic leukemia (CLL) B-lymphocytes; conditions: in vitro; Mentz F et al., Br. J. Hematol. 1995; cited from earlier work
Structure (SMILES),"expression of the myeloid marker CD11b (% CD11b+) ([1]; 72 hours, FIG. 6)","effectiveness versus Roflumilast or Piclamilast in potentiating the cytodifferentiating action of ATRA or ATO ([1]; ATO-sensitive or ATO-resistant APL cell lines, same doses of comparator, P<0.001 to P<0.01)","potentiation of the cytodifferentiating action of ATRA and ATO ([1]; C2 1 μM/10 μM + ATRA or + ATO 1 μM, P<0.001 versus either mono-treatment, NB4 and NB4-AsR, 72 hours)","potentiation of the proapoptotic effects of ATO (% sub-G1 or % Annexin V+) ([2]; C2 1 μM/10 μM + ATO 2 μM (ATO 1 μM in Baf3-T315I), 72 hours, P<0.001, P<0.05 in K562-RES, versus either mono-treatment, FIG. 2)","effectiveness versus roflumilast or piclamilast in potentiating the proapoptotic effects of ATO ([2]; CML cell lines, same doses of comparator + ATO, P<0.001 to P<0.05)",enhancement of ATO-induced cytotoxicity and caspase dependence (% Annexin V+) [3],"effectiveness versus roflumilast or piclamilast in potentiating the proapoptotic effects of ATO ([4]; APL cells incl. ATO-resistant, P<0.001 versus same doses of comparator + ATO, P<0.005 C2 1 μM versus comparator 10 μM)","potentiation of the proapoptotic effects of ATO (% Annexin V+ cells) ([4]; C2 1 μM/10 μM + ATO 1 μM, 72 hours, P<0.001 versus either mono-treatment, FIG. 1)",dose inducing CD38 and CD11b expression relative to piclamilast ([5]; ATO-sensitive or ATO-resistant acute promyelocytic leukemia cells),"induction of the early myeloid markers CD38 and CD11b ([5]; C2 as mono-treatment, ATO-sensitive or ATO-resistant APL cells, 72 hours, FIG. 7)","enhancement of the cytodifferentiating action of ATRA ([5]; very low-dose ATRA, ATO-sensitive or ATO-resistant APL cell lines, 72 hours)",induction of apoptosis [6]
"CS(=O)(=O)Nc1ccc(C(=O)O[C@@H](Cc2c(Cl)c[n+]([O-])cc2Cl)c2ccc(OC(F)F)c(OCC3CC3)c2)cc1OCC1CC1 [Compound C2, (-)-3-Cyclopropylmethoxy-4-methanesulfonylamino-benzoic acid 1-(3-cyclopropylmethoxy-4-difluoromethoxy-phenyl)-2-(3,5-dichloro-1-oxy-pyridin-4-yl)-ethyl ester]",upregulates the expression of the myeloid marker CD11b,more effective than Roflumilast or Piclamilast,potentiates the cytodifferentiating action of ATRA and ATO,potentiates the proapoptotic effects of ATO,more effective than Roflumilast or Piclamilast,strikingly enhances ATO-induced cytotoxicity in leukemia cells through a caspase-dependent mechanism,more effective than CHF 5152 (roflumilast) or CHF 5859 (piclamilast),potentiates the proapoptotic effects of ATO,5 fold lower,capable of inducing the expressions of the early myeloid markers CD38 and CD11b; also recorded: induces upregulation of the myeloid markers (CD38 and CD11b); also recorded: able to partially induce an early myeloid differentiation,enhances the cytodifferentiating action of very low-dose of ATRA,–
Cn1c(=O)c2[nH]cnc2n(C)c1=O [theophylline],–,–,–,–,–,–,–,–,–,–,–,induce apoptosis
